Results as given in publication PMC2263054, “Functional evolution of the vitamin D and pregnane X receptors” (BMC Evolutionary Biology, 2007).
Read-outs that look alike come from different tables or passages of the source.

Key:
Assay type in all cases: cell-based
[1] = target: T1, Xenopus laevis VDR (Xenopus laevis, UniProt O13124); assay: luciferase reporter transactivation assay in HepG2-NTCP cells, GAL4/xlVDR LBD chimera with tk-UAS-Luc; conditions: screening for activators, at least three concentrations of each drug
T1 sequence (O13124 90-422): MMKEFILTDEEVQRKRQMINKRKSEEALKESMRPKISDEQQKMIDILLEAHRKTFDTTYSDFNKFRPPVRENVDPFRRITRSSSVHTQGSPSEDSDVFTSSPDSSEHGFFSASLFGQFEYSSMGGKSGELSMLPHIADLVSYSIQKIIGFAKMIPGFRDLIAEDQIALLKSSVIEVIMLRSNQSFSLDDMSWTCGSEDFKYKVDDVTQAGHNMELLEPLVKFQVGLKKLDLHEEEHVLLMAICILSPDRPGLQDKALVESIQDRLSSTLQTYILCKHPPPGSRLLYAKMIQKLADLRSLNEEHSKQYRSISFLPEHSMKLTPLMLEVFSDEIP

[2] = target: T2, Zebrafish VDR (Danio rerio, UniProt Q9PTN2); assay: luciferase reporter transactivation assay in HepG2-NTCP cells, GAL4/zfVDR LBD chimera with tk-UAS-Luc; conditions: screening for activators, at least three concentrations of each drug
T2 sequence (Q9PTN2 121-453): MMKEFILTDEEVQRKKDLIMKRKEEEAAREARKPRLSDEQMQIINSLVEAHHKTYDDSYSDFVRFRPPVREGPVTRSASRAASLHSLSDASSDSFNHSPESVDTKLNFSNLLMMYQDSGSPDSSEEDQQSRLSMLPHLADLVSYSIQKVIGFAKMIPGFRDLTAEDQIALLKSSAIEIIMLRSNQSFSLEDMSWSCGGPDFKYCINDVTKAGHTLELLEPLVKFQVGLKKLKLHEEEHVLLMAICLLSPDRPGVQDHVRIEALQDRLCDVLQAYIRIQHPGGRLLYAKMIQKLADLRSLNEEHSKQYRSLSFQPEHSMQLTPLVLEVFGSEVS

[3] = target: T3, Sea lamprey VDR (Petromyzon marinus, UniProt Q7ZZY9)
T3 sequence (Q7ZZY9 92-406): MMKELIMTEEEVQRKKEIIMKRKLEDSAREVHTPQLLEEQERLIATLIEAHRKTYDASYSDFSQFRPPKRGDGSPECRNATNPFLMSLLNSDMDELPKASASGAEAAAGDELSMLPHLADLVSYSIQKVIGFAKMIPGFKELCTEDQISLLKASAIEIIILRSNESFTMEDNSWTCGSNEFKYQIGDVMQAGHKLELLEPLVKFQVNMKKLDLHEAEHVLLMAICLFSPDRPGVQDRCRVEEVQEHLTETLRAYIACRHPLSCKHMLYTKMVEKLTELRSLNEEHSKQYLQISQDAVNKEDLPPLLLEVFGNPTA

[4] = screening for activators, at least three concentrations of each drug

| Compound | Effect on Xenopus laevis VDR [1] | Effect on zebrafish VDR [2] | Effect on sea lamprey VDR [3, 4] | Effect on sea lamprey VDR [3] | Effect on Xenopus laevis VDR ([1]; listed as testosterone) | Effect on zebrafish VDR ([2]; listed as testosterone) |
| --- | --- | --- | --- | --- | --- | --- |
| CC1=C(/C=C/C(C)=C/C=C/C(C)=C/C(=O)O)C(C)(C)CCC1O (stereo not shown) [4-Hydroxretinoic acid] | No effect | No effect | No effect | – | – | – |
| CC(=O)N1CCN(c2ccc(OCC3COC(Cn4ccnc4)(c4ccc(Cl)cc4Cl)O3)cc2)CC1 (stereo not shown) [Ketoconazole] | No effect | No effect | No effect | – | – | – |
| Cc1ccc(C)c(OCCCC(C)(C)C(=O)O)c1 [Gemfibrozil] | No effect | No effect | No effect | – | – | – |
| Clc1ccccc1C(c1ccccc1)(c1ccccc1)n1ccnc1 [Clotrimazole] | No effect | No effect | No effect | – | – | – |
| CCCCC/C=C/C=C1/C(=O)C=C[C@@H]1C/C=C\CCCC(=O)O [15-Deoxy-D12,14-prostaglandin J2] | No effect | No effect | No effect | – | – | – |
| C[C@]12CCC(=O)C=C1CC[C@@H]1[C@@H]2CC[C@]2(C)C(=O)CC[C@@H]12 [Androstenedione] | – | No effect | No effect | – | – | – |
| COC(C)(C)CCCC(C)C/C=C/C(C)=C/C(=O)O (stereo not shown) [Methoprene acid] | – | No effect | No effect | – | – | – |
| CC[C@@]1(O)CC[C@H]2[C@@H]3CC=C4C[C@@H](OS(=O)(=O)O)CC[C@]4(C)[C@H]3CC[C@@]21C [5-Pregnen-3b,17-diol 3-sulfate] | No effect | No effect | No effect | – | – | – |
| C[C@]12CCC(=O)C=C1CC[C@@H]1[C@@H]2[C@@H](O)C[C@@]2(C)[C@H]1CC[C@]2(O)C(=O)CO [Cortisol] | No effect | No effect | No effect | – | – | – |
| CC(C)CCC[C@@H](C)[C@H]1CC[C@H]2C3=CC[C@H]4C[C@@H](O)CC[C@]4(C)[C@H]3CC[C@]12C [Lathosterol] | No effect | No effect | No effect | – | – | – |
| C[C@]12CC[C@@H](O)C[C@@H]1CC[C@@H]1[C@@H]2[C@@H](O)C[C@]2(C)[C@@H](C(=O)CO)CC[C@@H]12 [5a-Pregnan-3a,11b,21-triol-20-one] | No effect | No effect | No effect | – | – | – |
| CC1=C(/C=C/C(C)=C/C=C/C(C)=C\C(=O)O)C(C)(C)CCC1 [13-cis Retinoic acid] | No effect | No effect | No effect | – | – | – |
| CC1=C(/C=C/C(C)=C/C=C/C(C)=C\CO)C(C)(C)CCC1 [13-cis-Retinol] | No effect | No effect | No effect | – | – | – |
| C[C@H](CCC(=O)O)[C@H]1CC[C@H]2[C@@H]3C(=O)C[C@@H]4C[C@H](O)CC[C@]4(C)[C@H]3CC[C@]12C [7-Ketolithocholic acid] | No effect | No effect | No effect | – | – | – |
| C[C@H](CC[C@@H]1OC1(C)C)[C@H]1CC[C@H]2[C@@H]3CC=C4C[C@@H](O)CC[C@]4(C)[C@H]3CC[C@]12C [24(S)-,25-Epoxycholesterol] | No effect | No effect | No effect | – | – | – |
| CC1=C(/C=C/C(C)=C/C=C/C(C)=C/CO)C(C)(C)CCC1 [Retinol] | No effect | No effect | No effect | – | – | – |

| Compound | Effect on Xenopus laevis VDR [1] | Effect on zebrafish VDR [2] | Effect on sea lamprey VDR [3, 4] | Effect on sea lamprey VDR [3] | Effect on Xenopus laevis VDR ([1]; listed as testosterone) | Effect on zebrafish VDR ([2]; listed as testosterone) |
| --- | --- | --- | --- | --- | --- | --- |
| C[C@]12CC[C@H](O)C[C@@H]1CC[C@@H]1[C@@H]2CC[C@]2(C)C=CC[C@@H]12 [16,(5a)-Androsten-3b-ol] | No effect | No effect | No effect | – | – | – |
| Clc1cnc(Oc2ccc(Oc3ncc(Cl)cc3Cl)cc2)c(Cl)c1 [TCPOBOP] | No effect | No effect | No effect | – | – | – |
| C[C@]12CC[C@@H](O)C[C@H]1CC[C@@H]1[C@@H]2[C@@H](O)C[C@]2(C)C(=O)CC[C@@H]12 [5b-Androstan-3a,11b-17-one] | No effect | No effect | No effect | – | – | – |
| C[C@]12CC[C@@H]3c4ccc(O)cc4CC[C@H]3[C@@H]1C[C@@H](O)C2=O [16a-Hydroxyestrone] | No effect | No effect | No effect | – | – | – |
| CC(=O)[C@H]1CC[C@H]2[C@@H]3CCC4=CC(=O)CC[C@]4(C)[C@H]3CC[C@]12C [Progesterone] | No effect | No effect | No effect | – | – | – |
| 4-Pregnen-17,20b-diol-3-one sulfate | No effect | No effect | No effect | – | – | – |
| CCCOC(=O)c1ccc(O)cc1 [n-Propyl 4-hydroxybenzoate] | No effect | No effect | No effect | – | – | – |
| C[C@H](CCC(=O)NCCS(=O)(=O)[O-])[C@H]1CC[C@H]2[C@@H]3CC[C@@H]4C[C@H](O)CC[C@]4(C)[C@H]3C[C@H](O)[C@]12C.[Na+] [Taurodeoxycholic acid sodium salt] | No effect | No effect | No effect | – | – | – |
| S-Farnesyl-L-cysteine methyl ester | – | No effect | No effect | – | – | – |
| C[C@]12CC[C@H]3[C@@H](CCC4=CC(=O)CC[C@@]43C)[C@@H]1CC[C@H]2O [Epitestosterone] | No effect | No effect | – | – | – | – |
| CC#C[C@]1(O)CC[C@H]2[C@@H]3CCC4=CC(=O)CCC4=C3[C@@H](c3ccc(N(C)C)cc3)C[C@@]21C [Mifepristone] | No effect | – | – | No effect | – | – |
| C[C@]12CC[C@H]3[C@@H](CCC4=CC(=O)CC[C@@]43C)[C@@H]1CC[C@@H]2O [Testosterone] | No effect | No effect | – | – | None of these three VDRs were activated | None of these three VDRs were activated |
| CC1=C(/C=C/C(C)=C/C=C/C(C)=C/CO)C(C)(C)CCC1 [all-trans-Retinol] | – | No effect | – | – | – | – |
| C[C@H](CCC(=O)O)[C@H]1CC[C@H]2[C@@H]3[C@H](O)C[C@@H]4C[C@H](O)CC[C@]4(C)[C@H]3C[C@H](O)[C@]12C [Cholic acid] | No effect | No effect | – | – | – | – |
| C[C@]12CC[C@@H]3c4ccc(O)cc4CC[C@H]3[C@@H]1CCC2=O [Estrone] | – | No effect | No effect | – | – | – |
